Experiment: solvent given as SMILES

C(=Cc1ccccc1)c1ccccc1
Details	solvation free energy, 298 K [kcal/mol]
in C1CCOC1	-11.8
in C1COCCO1	-11.5
in CC(C)(C)O	-9.66
in CC(C)CC(C)(C)C	-9.92
in CC(C)CC(C)O	-9.81
in CC(C)CCCC(C)CCO	-10
in CC(C)CCO	-9.88
in CC(C)CO	-9.73
in CC(C)O	-9.74
in CCC(C)(C)O	-9.84
in CCC(C)=O	-11.5
in CCC(C)O	-9.81
in CCCC(C)CO	-9.92
in CCCC(C)O	-9.91
in CCCCC(CC)CO	-10
in CCCCCC	-10.2
in CCCCCCC	-10.2
in CCCCCCCC	-10.2
in CCCCCCCCCC	-10.2
in CCCCCCCCCCO	-10.2
in CCCCCCCCO	-10.2
in CCCCCCCO	-10.2
in CCCCCCO	-10.1
in CCCCCO	-10.1
in CCCCO	-10
in CCCCOC(C)=O	-11.2
in CCCCOCCCC	-10.6
in CCCO	-9.97
in CCO	-9.99
in CCOC(C)=O	-11.2
in CCOCC	-11
in CN(C)C=O	-11.6
in CO	-9.92
in COC(C)(C)C	-10.9
in COC(C)=O	-11.2
in Cc1ccc(C)cc1	-11.3
in Cc1cccc(C)c1	-11.2
in Cc1ccccc1C	-11.3
in ClC(Cl)(Cl)Cl	-11.2
in Clc1ccccc1	-11.5
in O	-3.79

CN1CCOCC1
Details	solvation free energy, 298 K [kcal/mol]
in O	-6.32

Clc1cc(-c2ccccc2)c(Cl)c(Cl)c1Cl
Details	solvation free energy, 298 K [kcal/mol]
in CCCCCCCCO	-11.7
in O	-3.29

OC1CCCCC1
Details	solvation free energy, 298 K [kcal/mol]
in Brc1ccccc1	-6.47
in C1CCOC1	-7.24
in CC#N	-6.37
in CC(C)=O	-6.94
in CC(C)CC(C)(C)C	-5.02
in CC(C)O	-7.35
in CCCCCCCCCCCCCCCC	-4.89
in CCCCCCCCCCO	-7.49
in CCCCCCCCO	-7.02
in CCCCOC(C)=O	-7.07
in CO	-7.69
in O	-5.44
in [2H]O[2H]	-5.7

COC(OC)OC
Details	solvation free energy, 298 K [kcal/mol]
in O	-4.42

CC1=CCCCC1
Details	solvation free energy, 298 K [kcal/mol]
in O	0.66

Nc1ccc(Cc2ccc(N)cc2)cc1
Details	solvation free energy, 298 K [kcal/mol]
in O	-16.3

ClC(Cl)C(Cl)(Cl)Cl
Details	solvation free energy, 298 K [kcal/mol]
in O	-1.31

CCCCCCCOC(=O)c1ccccc1C(=O)OCCCCCCC
Details	solvation free energy, 298 K [kcal/mol]
in O	-6.68

O=C(O)c1ccc2ccccc2c1
Details	solvation free energy, 298 K [kcal/mol]
in C=CCCCCCCC=C	-9.58
in C=CCCCCCCCCCCCCCC	-9.37
in O	-8.54

ClC=C(Cl)Cl
Details	solvation free energy, 298 K [kcal/mol]
in C1COCCO1	-4.91
in CC(=O)N(C)C	-4.8
in CCCCCCCCC=CCCCCCCCC(=O)OCC(COC(=O)CCCCCCCC=CCCCCCCCC)OC(=O)CCCCCCCC=CCCCCCCCC	-4.37
in CCCCCCCCCC	-3.84
in CCCCCCCCO	-4.09
in CCCCN(C=O)CCCC	-4.62
in CNC(C)=O	-4.35
in O	-0.46

C=Cc1ccccc1
Details	solvation free energy, 298 K [kcal/mol]
in O	-1.27

C=CCCCCCC
Details	solvation free energy, 298 K [kcal/mol]
in CC#N	-3.98
in CCC#N	-4.66
in CCCC#N	-4.42
in CCCCC(CC)COC(=O)CCCCC(=O)OCC(CC)CCCC	-4.72
in CCCCCCC	-5.17
in CCCCCCCCC=CCCCCCCCC(=O)OCC(COC(=O)CCCCCCCC=CCCCCCCCC)OC(=O)CCCCCCCC=CCCCCCCCC	-4.65
in CCCCCCCCO	-4.58
in CCCCOC(=O)c1ccccc1C(=O)OCCCC	-4.62
in CCN1CCCC1=O	-4.36
in CCN(CC)C(C)=O	-4.5
in CCNC(C)=O	-4.23
in CCNC=O	-3.97
in CCOC(=O)c1ccccc1C(=O)OCC	-4.11
in CN1CCCC1=O	-4.02
in CN(C)C=O	-3.89
in CNC=O	-3.6
in CS(C)=O	-3.04
in N#CCCCCC#N	-3.31
in NC=O	-1.58
in NCCO	-2.07
in Nc1ccccc1	-3.82
in O	1.93
in O=C1CCCO1	-3.53
in O=CN1CCOCC1	-3.4
in OCCO	-1.81
in OCCOCCO	-2.55
in OCCOCCOCCO	-2.78

Reference: the CombiSolv-Exp solvation set (Vermeire and Green 2021)
